In brackets after ≈: the same amount, converted by molar mass. Read-outs that look alike come from different tables or passages of the source. Marks after values point to notes of the source that are not given here.
What was measured:
hCB1 = molecular target: T1, hCB1 (Homo sapiens, UniProt P21554); experiment: Radioligand competition binding screen with [3H]-CP 55,940 on hCB1-expressing HEK membranes; details: for CB1 binding extent at 10 μM (%) (±SEM): 10 μM compound, displacement of 0.75 nM [3H]-CP 55,940; for CB2 selectivity over CB1 (in words): from CB1 binding at 10 μM versus CB2 affinity
T1 construct: expressed in transfected cells; host or cells: HEK (membranes)
T1 sequence (P21554 whole entry): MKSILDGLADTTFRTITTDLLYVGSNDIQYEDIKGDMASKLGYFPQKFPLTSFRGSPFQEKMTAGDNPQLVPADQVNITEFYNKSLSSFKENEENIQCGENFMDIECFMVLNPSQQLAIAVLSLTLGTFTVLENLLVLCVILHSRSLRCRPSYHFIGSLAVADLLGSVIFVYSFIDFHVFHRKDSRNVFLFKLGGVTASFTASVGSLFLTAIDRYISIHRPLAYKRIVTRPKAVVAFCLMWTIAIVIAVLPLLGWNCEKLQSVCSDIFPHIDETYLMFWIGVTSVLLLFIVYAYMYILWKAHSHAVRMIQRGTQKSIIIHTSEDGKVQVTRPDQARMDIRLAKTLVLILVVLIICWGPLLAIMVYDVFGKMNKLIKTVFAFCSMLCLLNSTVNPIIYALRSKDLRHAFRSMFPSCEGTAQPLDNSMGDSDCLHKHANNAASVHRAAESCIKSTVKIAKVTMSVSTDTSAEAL

hCB2 [1] = molecular target: T2, hCB2 (Homo sapiens, UniProt P34972); experiment: Comparison of efficacy/potency and operational-model bias analysis between hCB2 pathways, reference CP 55,940; assay type: cell-based; details: for Internalisation – pERK Bias factor / cAMP – internalisation Bias factor / cAMP – pERK Bias factor: 10^ΔΔlogR; for Internalisation – pERK Bias factor / cAMP – internalisation Bias factor / cAMP – pERK Bias factor / Between-pathway signalling bias (in words): relative to CP 55,940; for Internalisation – pERK ΔΔlogR (±SEM) / cAMP – internalisation ΔΔlogR (±SEM) / cAMP – pERK ΔΔlogR (±SEM): relative to reference ligand CP 55,940
T2 construct: expressed in transfected cells; host or cells: HEK Flp-in
T2 sequence (P34972 whole entry): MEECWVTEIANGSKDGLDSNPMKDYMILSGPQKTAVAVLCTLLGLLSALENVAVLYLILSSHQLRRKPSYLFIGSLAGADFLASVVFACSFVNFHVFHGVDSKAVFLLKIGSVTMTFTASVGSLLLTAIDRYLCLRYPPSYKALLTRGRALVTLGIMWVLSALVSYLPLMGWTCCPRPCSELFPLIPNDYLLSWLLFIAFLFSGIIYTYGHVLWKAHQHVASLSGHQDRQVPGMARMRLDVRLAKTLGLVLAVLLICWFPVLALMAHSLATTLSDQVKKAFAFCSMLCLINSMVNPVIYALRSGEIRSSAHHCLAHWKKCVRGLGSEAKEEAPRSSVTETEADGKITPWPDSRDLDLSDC

CB2 = test system: CB2; set-up: method as in Yrjölä et al., 2015; details: ref Yrjölä et al., 2015; cited from earlier work
physchem = assay type: physicochemical; details: organic solvent or mixture
Source text: The piperazine-containing 1,3,5-triazines 1 and 7, assembled following literature protocols (compound “26a” in [Yrjölä et al., 2013]; compound “8” in [Yrjölä et al., 2015], respectively), were alkylated with various alkyl bromide linkers containing a Boc-protected amine at the terminus to give 3, 4, 8, 9 and 10 (Schemes 1, 2). These were then Boc-deprotected using acidic conditions to give primary amines 5, 6, 11, 12, and 13. One example of an acetylated linker (14) was also synthesised. Thirteen compounds were biologically tested (Table 1); five compounds had been reported previously (1, 2, 7, 15, 16) ([Yrjölä et al., 2013], [2015]), and the remainder were novel (5, 6, 9–14). […] 7 was therefore assayed in a higher final DMSO content (1%) than the other compounds (0.1%). Both vehicle concentrations were controlled for in all assays (negative/vehicle and positive controls).

hCB2 [2] = molecular target: T2, hCB2; experiment: hCB2 internalisation assay (immunocytochemistry of surface receptor), HEK Flp-in hCB2 cells; assay type: cell-based; set-up: Emax: dose or concentration left out as unconfirmed; details: for logR [log(τ/KA)] (±SEM) Internalisation: operational model transduction ratio
hCB2 [3] = molecular target: T2, hCB2; experiment: Real-time CAMYEL BRET cAMP assay, forskolin-stimulated HEK Flp-in hCB2 cells; assay type: cell-based; details: for cAMP (5 min) Emax (±SEM): change relative to forskolin alone (100%), vehicle 0%, 10 and 14 approximate; for logR [log(τ/KA)] (±SEM) cAMP: operational model transduction ratio; for Emax: read-out: cAMP (5 min) Emax (±SEM)
Experimental: Cellular cAMP levels were measured using a real-time BRET biosensor (CAMYEL) as previously described ([Cawston et al., 2013]). In brief, cells were seeded in 10 cm dishes one day prior to transfection. The medium was then replaced and cells transfected with 5 μg of pcDNA3L-His-CAMYEL (ATCC, Manassas, VA, United States) using linear PEI (MW 25 kDa; Polysciences, Warrington, PA, United States) with a DNA:PEI ratio of 1:6. Approximately 24 h after transfection, cells were trypsinised and re-plated in poly-D-lysine treated white 96-well plates (Corning), at a density of 5–6 × 10^4 cells per well. For experiments involving pertussis toxin (PTX; Sigma-Aldrich) pre-treatment, cells were seeded in half the usual volume of medium, and then ∼5 h later, 2× concentrated PTX or vehicle (50% glycerol, […] Tris–HCl pH 7.5, 10 mM glycine, 500 mM NaCl) were prepared in medium and added to the existing plating medium (giving rise to a final PTX concentration of 100 ng mL^-1). Approximately 24 h after plating (or 16–20 h after applying PTX/vehicle in experiments involving PTX treatment), cells were washed once with Hank’s Balanced Salt Solution (HBSS, Thermo Fisher Scientific, catalogue #14025-134), and then equilibrated for 30 min in HBSS supplemented with 1 mg mL^-1 BSA. Coelenterazine h (final concentration 5 μM; NanoLight Technologies, Pinetop, AZ, United States) was added to each well and incubated for 5 min. Forskolin was added (final concentration 5 μM) and incubated for 6 min (allowing enough time for the induced cAMP increase to plateau), prior to vehicle/drug addition. All drugs and reagents were prepared in HBSS supplemented with 1 mg mL^-1 BSA. SR 144528 was a generous gift from Roche (Basel, Switzerland).
Assays were carried out in technical duplicate. Emissions were detected at 460 nm (Rluc) and 535 nm (YFP) with either a LUMIstar® Omega luminometer (BMG Labtech, Ortenberg, Germany) or CLARIOstar® (BMG Labtech). BRET ratios (535 nm emissions/460 nm emissions, where an increase in ratio corresponds to a decrease in cAMP) were normalised to pre-forskolin reads (i.e., with coelenterazine h present) to remove any variability present prior to addition of forskolin and drug/vehicle. A Lowess curve (GraphPad Prism) was fitted to individual technical replicates within an assay so that cAMP signalling data could be extrapolated from any time point as opposed to only those that were empirically measured (typically every 30–60 s). Data were normalised to matched vehicle (0%) and forskolin (100%) treatments, allowing compilation of data from independent experiments.

HEK Flp-in wt cells = experiment: CAMYEL cAMP assay in HEK Flp-in wt cells (non-hCB2-mediated effects); assay type: cell-based, human; details: for Non-hCB2-mediated effects on cAMP (in words): HEK Flp-in wt
hCB2 [4] = molecular target: T2, hCB2; experiment: Radioligand competition binding with [3H]-CP 55,940 on hCB2-expressing HEK membranes; details: for inhibition at 10 µM: 1 h, read-out: CB2 binding extent at 10 μM (%) (±SEM)
hCB2 [5] = molecular target: T2, hCB2; experiment: pERK AlphaLISA assay, HEK Flp-in hCB2 cells; assay type: cell-based; details: for Behaviour in pERK pathway (in words): 4 min; for logR [log(τ/KA)] (±SEM) pERK: operational model transduction ratio; for Time of maximal pERK response: time course experiment; for Emax: read-out: pERK (4 min) Emax (±SEM)
[6] = 5 min post-drug, 5 μM forskolin, 10 and 14 approximate (non-hCB2-mediated effects), read-out: cAMP (5 min) pEC50 (±SEM) (converted)
[7] = 5 min post-drug, 5 μM forskolin
[8] = 10 μM compound, displacement of 0.5 nM [3H]-CP 55,940
[9] = compared to methylpiperazinyl-15
[10] = heterologous competition vs [3H]-CP 55,940, read-out: CB2 pKi (±SEM) (converted)
[11] = 4 min stimulation, 14 approximate (low potency), read-out: pERK (4 min) pEC50 (±SEM) (converted)
[12] = read-out: Internalisation (1 h) Emax (±SEM)

Structure (SMILES)	CB1 binding extent at 10 μM (%) (±SEM) (hCB1)	CB2 selectivity over CB1 (in words) (hCB1)	Internalisation – pERK Bias factor (hCB2 [1])	cAMP – internalisation Bias factor (hCB2 [1])	cAMP – pERK Bias factor (hCB2 [1])	Between-pathway signalling bias (in words) (hCB2 [1])	Internalisation – pERK ΔΔlogR (±SEM) (hCB2 [1])	cAMP – internalisation ΔΔlogR (±SEM) (hCB2 [1])	cAMP – pERK ΔΔlogR (±SEM) (hCB2 [1])	GTPγS activity, % of maximum measured activity (CB2) [%]	EC50 (hCB2 [2]; 1 h stimulation) [nM]	logR [log(τ/KA)] (±SEM) Internalisation (hCB2 [2])	EC50 (hCB2 [3]; [6]) [nM]	cAMP (5 min) Emax (±SEM) (hCB2 [3]; [7])	logR [log(τ/KA)] (±SEM) cAMP (hCB2 [3])	Non-hCB2-mediated effects on cAMP (in words) (HEK Flp-in wt cells)	inhibition at 10 µM (hCB2 [4]; [8]) [%]	Ki (hCB2 [4]; [10]) [nM]	logR [log(τ/KA)] (±SEM) pERK (hCB2 [5])	Time of maximal pERK response (hCB2 [5]) [min]	other results
CCOc1nc(NC23CC4CC(CC(C4)C2)C3)nc(N2CCNCC2)n1 [Compound 7, N-(ad-amantan-1-yl)-4-ethoxy-6-(piperazin-1-yl)-1,3,5-triazi n-2-amine]	13.7 (4.1) %	likely also CB2-selective	15.4	1.3	20.3	away from activation of pERK	1.19 (0.16)***	0.12 (0.31)	1.31 (0.27)***	~60	45.7	7.42 (0.26)	85.1	–43.0 (3.0) %	7.29 (0.26)	most pronounced effects	85.6	417	5.51 (0.05)	4	solubility (physchem): 1000 µM (≈ 358 µg/mL); Emax at 10 µM (hCB2 [2]; read-out: Internalisation (1 h) Emax (±SEM), 1 h stimulation, change in surface hCB2 relative to vehicle-treated (100%), for 13 efficacy at 10 μM): -61.4%; Reduction in hCB2 affinity compared to 15 (hCB2 [4]; [9]): ~100 fold; Behaviour in pERK pathway (in words) (hCB2 [5]): weak partial agonists; EC50 (hCB2 [5]; [11]): 1820 nM
CCOc1nc(NC23CC4CC(CC(C4)C2)C3)nc(N2CCN(CCOCCOCCNC(C)=O)CC2)n1 [Compound 14, N-(2-(2-(2-(4-(4-((Adamantan-1-yl)Amino)-6-Ethoxy-1,3,5-Triazin-2-yl)Piperazin-1-yl)Ethoxy)Ethoxy) Ethyl)Acetamide]	–18.8 (11.4) %	likely also CB2-selective	8.6	0.2	1.6	biased towards internalisation	0.93 (0.13)**	–0.73 (0.25)*	0.20 (0.25)			6.81 (0.23)			5.83 (0.23)				5.16 (0.09)	4	EC50 (hCB2 [2]): 174 nM; Emax (hCB2 [2]; [12]): -61.8%; EC50 (hCB2 [3]): 955 nM; Behaviour in cAMP pathway (in words) (hCB2 [3]; 5 μM forskolin): partial agonists; Emax (hCB2 [3]): -29.8%; Non-hCB2-mediated cAMP effects: fold less potent than cAMP inhibition in hCB2-expressing cells (HEK Flp-in wt cells; HEK Flp-in wt versus HEK Flp-in hCB2): ~5 fold; Ki (hCB2 [4]): 1780 nM; inhibition at 10 µM (hCB2 [4]): 76.2%; Reduction in hCB2 binding affinity compared to 15 (hCB2 [4]; [9]): 2–3 log units; EC50 (hCB2 [5]): 7410 nM; Emax (hCB2 [5]): 4.66%
CCOc1nc(NC23CC4CC(CC(C4)C2)C3)nc(N2CCN(C)CC2)n1 [Compound 15, N-(Adamantan-1-yl)-4-ethoxy-6-(4-methylpiperazin-1-yl)-1,3,5-triazin-2-amine]		somewhat CB2-selective	5.7	0.3	1.6	biased towards internalisation	0.76 (0.15)*	–0.56 (0.15)	0.20 (0.13)			8.92 (0.09)			8.12 (0.09)				7.45 (0.10)	4	Functional GTPγS selectivity for CB2 versus CB1 (CB2): 1000 to 10,000 fold; GTPγS functional behaviour (in words) (CB2): full agonist; EC50 (hCB2 [2]): 1.23 nM; Emax (hCB2 [2]; [12]): -56.5%; EC50 (hCB2 [3]): 7.94 nM; Emax (hCB2 [3]): -39.6%; Ki (hCB2 [4]): 4.27 nM; inhibition at 10 µM (hCB2 [4]): 92.9%; EC50 (hCB2 [5]): 35.5 nM; Behaviour in pERK pathway (in words) (hCB2 [5]): equivalent efficacies to CP 55,940; Emax (hCB2 [5]): 9.96%
CCOc1nc(NC23CC4CC(CC(C4)C2)C3)nc(N2CCN(CCF)CC2)n1 [Compound 16, N-(adamantan-1-yl)-4-et hoxy-6-(4-(2-fluoroethyl)piperazin-1-yl)-1,3,5-triazin-2-amine]		somewhat CB2-selective	2.2	0.7	1.6	did not demonstrate any indication of between-pathway bias	0.35 (0.13)	–0.14 (0.22)	0.21 (0.20)	~70	1.2	8.90 (0.19)	2.82	–35.6 (2.2) %	8.52 (0.19)	most pronounced effects	95.6	1.62	7.84 (0.07)	4	Efficacy relative to maximal efficacy measured across all compounds, all three pathways (hCB2 [1]): ~80%; Emax (hCB2 [1]; read-out: Efficacy relative to maximal efficacy measured across all compounds, all three pathways, internalisation, cAMP and pERK): 75 to 80%; Functional GTPγS selectivity for CB2 versus CB1 (CB2): 1000 to 10,000 fold; Behaviour in internalisation pathway (in words) (hCB2 [2]; 1 h stimulation): significantly less efficacious; EC50 (hCB2 [5]; [11]): 12.3 nM
